We go through 12 compounds from ChEMBL document CHEMBL1126381, “2-carboxy indolines and indoles as potential glycine/NMDA antagonists: effect of five-membered ring conformation on affinity” (Bioorg Med Chem Lett, 1992).

Molecules are shown by their SMILES.

Assay [1] has as its target Glutamate receptor ionotropic, NMDA 1 (Rattus norvegicus, UniProt P35439). Nature of the assay: Inhibition of [3H]L-689,560 binding to Glycine site of NMDA receptor of rat cortical membranes. The assay is classed as cell membranes, Membrane.
Assay [2] concerns Mus musculus. Nature of the assay: In vivo activity in DBA/2 Mouse audiogenic seizure model was determined by testing number of animals protected after a dose of 100 mg/Kg i.p.; Number of animals tested 8 mice. The assay is classed as functional.
In assay [3] the test system is Mus musculus. As to the kind of experiment: In vivo activity in DBA/2 Mouse audiogenic seizure model was determined by testing number of animals protected after a dose of 50 mg/Kg i.p.; Number of animals tested 8 mice. The class given is functional.

Broadly, the IC50 is the concentration that inhibits the measured activity by half. Lower therefore signals greater potency in that assay. The compound `O=C(O)[C@@H]1c2ccc(Cl)cc2N[C@H]1C(=O)O` gave an IC50 in assay [1] of over 100 µM. As for `O=C(CCc1c(C(=O)O)[nH]c2cc(Cl)cc(Cl)c12)Nc1ccccc1`, the half-maximal inhibitory concentration (IC50) in assay [1] came out at 0.036 µM. `O=C(OC[C@@H]1c2ccc(Cl)cc2N[C@H]1C(=O)O)c1ccccc1` showed a half-maximal inhibitory concentration (IC50) in assay [1] of over 100 µM. On the same count and under the same terms, then `COC(=O)[C@@H]1c2ccc(Cl)cc2N[C@H]1C(=O)O`, with over 300 µM; and `O=C(O)C[C@@H]1c2ccc(Cl)cc2N[C@H]1C(=O)O`, with over 100 µM. On the same count and under the same terms, the result for `O=C(O)[C@@H]1Nc2cc(Cl)ccc2[C@H]1CO` reads over 100 µM. As to `O=C(O)CCc1c(C(=O)O)[nH]c2cc(Cl)cc(Cl)c12`, the Animals protected in the assay on Mus musculus [2] is on record as 6; with Mus musculus [3], 0. The compound also gave an IC50 in assay [1] of 0.07 µM. Take `Nc1ccc(CNC(=O)CCc2c(C(=O)O)[nH]c3cc(Cl)cc(Cl)c23)cc1`: the Animals protected in the assay with Mus musculus [2] is reported as 1. Further, in assay [1], the IC50 turned out to be 0.027 µM. In assay [1], `NC(=O)c1c(C(=O)O)[nH]c2cc(Cl)ccc12` displayed an IC50 of 0.81 µM. The same measure, in the same setting: the result for `O=C(O)c1[nH]c2cc(Cl)ccc2c1CO` reads 9 µM; that for `NC(=O)[C@@H]1c2ccc(Cl)cc2N[C@H]1C(=O)O`, over 100 µM.

In the case of `COC(=O)C1(C(=O)OC)c2ccc(Cl)cc2N[C@H]1C(=O)O`, the IC50 in assay [1] was over 100 µM.
